Structures are written as SMILES. Some results are limits rather than exact numbers.

A short description of series [1]: AUC (0 to infinity) in Sprague-Dawley rat at 10 mg/kg, ip measured upto 48 hrs by LC-MS/MS analysis. The class given is ADME, organism-based. Details: time < 48 hrs, dose 10 mg/kg, route ip. The note with it: in vivo.
A short description of series [2]: Cmax in Sprague-Dawley rat at 10 mg/kg, ip measured upto 48 hrs by LC-MS/MS analysis. The format is ADME, organism-based. The conditions noted are these: in vivo. The arrangement: time < 48 hrs, dose 10 mg/kg, route ip.
Series [3] in a line: Half life in Sprague-Dawley rat at 40 mg/kg, IG measured upto 48 hrs by LC-MS/MS analysis. The class given is ADME, organism-based. The note with it: in vivo, po, 40 mg/kg, 48 h.
Series [4] is described as follows: AUC (0 to infinity) in Sprague-Dawley rat at 8 mg/kg, iv measured upto 48 hrs by LC-MS/MS analysis. The class given is ADME, organism-based. Details: time < 48 hrs, dose 8 mg/kg, route iv. The note with it: in vivo.
Series [5] is described as follows: Clearance in Sprague-Dawley rat at 40 mg/kg, IG measured upto 48 hrs by LC-MS/MS analysis. The class given is ADME, organism-based. The note with it: in vivo, po, 40 mg/kg, 48 h.
For series [6], the system named is PBMC. Description: Cytotoxicity against human PBMC cells assessed as reduction in cell viability at 1 to 4 uM measured after 48 hrs by CCK-8 assay. The format is toxicity, cell-based. The conditions noted are these: dose 1-4 µM.
Series [7] can be described thus: AUC (0 to infinity) in Sprague-Dawley rat at 40 mg/kg, IG measured upto 48 hrs by LC-MS/MS analysis. The format is ADME, organism-based. The arrangement: time < 48 hrs, dose 40 mg/kg, route ig. The note with it: in vivo, po, 48 h.
A short description of series [8]: Tmax in Sprague-Dawley rat at 10 mg/kg, ip measured upto 48 hrs by LC-MS/MS analysis. The note with it: in vivo. The format is ADME, organism-based.
The nature of series [9]: Apparent volume of distribution in Sprague-Dawley rat at 40 mg/kg, IG measured upto 48 hrs by LC-MS/MS analysis. The format is ADME, organism-based. The note with it: in vivo, po.
A short description of series [10]: AUC (0 to t) in Sprague-Dawley rat at 8 mg/kg, iv measured upto 48 hrs by LC-MS/MS analysis. The class given is ADME, organism-based. The conditions noted are these: in vivo. The arrangement: dose 8 mg/kg, time < 48 hrs, route iv.
Series [11] in a line: AUC (0 to t) in Sprague-Dawley rat at 40 mg/kg, IG measured upto 48 hrs by LC-MS/MS analysis. The class given is ADME, organism-based. The arrangement: dose 40 mg/kg, time < 48 hrs, route ig. The conditions noted are these: in vivo, po.
Series [12] in a line: Half life in Sprague-Dawley rat at 10 mg/kg, ip measured upto 48 hrs by LC-MS/MS analysis. The format is ADME, organism-based. The conditions noted are these: in vivo.
A short description of series [13]: Clearance in Sprague-Dawley rat at 8 mg/kg, iv measured upto 48 hrs by LC-MS/MS analysis. The format is ADME, organism-based. The note with it: in vivo, iv, 8 mg/kg, 48 h.
Series [14] is described as follows: Apparent volume of distribution in Sprague-Dawley rat at 8 mg/kg, iv measured upto 48 hrs by LC-MS/MS analysis. The conditions noted are these: in vivo, iv, 8 mg/kg, 48 h. The class given is ADME, organism-based.
The nature of series [15]: Cmax in Sprague-Dawley rat at 40 mg/kg, IG measured upto 48 hrs by LC-MS/MS analysis. The format is ADME, organism-based. The arrangement: dose 40 mg/kg, time < 48 hrs, route ig. The conditions noted are these: in vivo, po.
A short description of series [16]: Clearance in Sprague-Dawley rat at 10 mg/kg, ip measured upto 48 hrs by LC-MS/MS analysis. The format is ADME, organism-based. The note with it: in vivo.
Series [17] can be described thus: Cmax in Sprague-Dawley rat at 8 mg/kg, iv measured upto 48 hrs by LC-MS/MS analysis. The format is ADME, organism-based. Details: time < 48 hrs, dose 8 mg/kg, route iv. The note with it: in vivo.
Series [18] can be described thus: Half life in Sprague-Dawley rat at 8 mg/kg, iv measured upto 48 hrs by LC-MS/MS analysis. The note with it: in vivo, iv, 8 mg/kg, 48 h. The format is ADME, organism-based.
The target in series [19] is Programmed cell death protein 1/Programmed cell death 1 ligand 1 (Homo sapiens, UniProt Q9NZQ7). Description: Inhibition of PD-1/PD-L1 interaction (unknown origin) incubated for 1 hr by HTRF assay. The class given is protein-complex assay.
Sequence of Programmed cell death protein 1/Programmed cell death 1 ligand 1 (Q15116 whole entry): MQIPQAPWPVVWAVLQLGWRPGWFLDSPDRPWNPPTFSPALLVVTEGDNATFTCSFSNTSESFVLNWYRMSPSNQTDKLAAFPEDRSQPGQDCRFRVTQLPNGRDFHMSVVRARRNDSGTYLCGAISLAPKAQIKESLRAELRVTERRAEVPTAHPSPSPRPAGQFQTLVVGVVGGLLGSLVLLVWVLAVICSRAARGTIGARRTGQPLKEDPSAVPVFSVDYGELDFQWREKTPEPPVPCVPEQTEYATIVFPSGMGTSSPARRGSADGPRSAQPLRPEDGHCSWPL
Sequence of Programmed cell death protein 1/Programmed cell death 1 ligand 1 (Q9NZQ7 whole entry): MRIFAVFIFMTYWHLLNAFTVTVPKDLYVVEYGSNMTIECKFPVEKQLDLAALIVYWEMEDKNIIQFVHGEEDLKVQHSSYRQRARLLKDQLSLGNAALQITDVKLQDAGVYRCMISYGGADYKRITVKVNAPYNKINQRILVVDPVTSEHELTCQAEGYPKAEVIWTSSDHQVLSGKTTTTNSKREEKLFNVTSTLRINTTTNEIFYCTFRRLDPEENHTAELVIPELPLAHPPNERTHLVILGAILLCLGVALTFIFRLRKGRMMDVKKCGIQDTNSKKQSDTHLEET
The nature of series [20]: Apparent volume of distribution in Sprague-Dawley rat at 10 mg/kg, ip measured upto 48 hrs by LC-MS/MS analysis. The class given is ADME, organism-based. The conditions noted are these: in vivo.
A short description of series [21]: Tmax in Sprague-Dawley rat at 8 mg/kg, iv measured upto 48 hrs by LC-MS/MS analysis. The class given is ADME, organism-based. The conditions noted are these: in vivo.
Series [22] is described as follows: AUC (0 to t) in Sprague-Dawley rat at 10 mg/kg, ip measured upto 48 hrs by LC-MS/MS analysis. The note with it: in vivo. Details: time < 48 hrs, dose 10 mg/kg, route ip. The format is ADME, organism-based.
Series [23] has as its system MC-38. Description: Antitumor activity against mouse MC38 cells expressing human PD-L1 protein assessed as reduction in cell viability measured after 48 hrs by CCK-8 assay. The format is functional, cell-based. The note with it: MC-38, 48 h.
The nature of series [24]: Bioavailability in Sprague-Dawley rat at 40 mg/kg, IG measured upto 48 hrs by LC-MS/MS analysis. The note with it: in vivo, po. The class given is ADME, organism-based.

As for `N#Cc1cccc(COc2cc(OCc3cccc(-c4ccccc4F)c3Cl)ccc2CNCC(=O)O)c1`, the AUC(0-inf) in series [1] is 2160 ng·h/mL; in [4], 1840 ng·h/mL. Moreover, the Cmax in [2] came out at 786 ng/mL; in series [15] it was 1290 ng/mL; in series [17] it was 2530 ng/mL. Further, the t1/2 turned out to be 188 min in [3] and 6.6 min in series [18]. For the same compound, the CL in [5] was 572.5 mL/min/kg; in series [13] it was 75.3 mL/min/kg. Further, the Activity entry in series [6] is recorded as “Non-Toxic”. This compound gave an AUC in [7] of 2869.12 ng·h/mL. For the same compound, the Tmax was found to be 49.8 min in series [8] and 4.8 min in [21]. Further, the figures for the Vz in series [9], in series [14] and in series [20] were 65.83 L/kg, 2.04 L/kg and 8.28 L/kg, respectively. The results for the AUC(0-t) at 48 h in [10], in series [11] and in series [22] were 1370 ng·h/mL, 2660 ng·h/mL and 1970 ng·h/mL, respectively. Further, the half-life in series [12] was 97.8 min. In addition, in [16], the CL/F was 78 mL/min/kg. For the same compound, the IC50 is 6 µM in series [19] and > 8 µM in series [23]. Further, the bioavailability in [24] turned out to be 42%.

For the origin of these results see ChEMBL document CHEMBL5360625, “Design, Synthesis, and Antitumor Activity Evaluation of 2-Arylmethoxy-4-(2,2'-dihalogen-substituted biphenyl-3-ylmethoxy) Benzylamine Derivatives as Potent PD-1/PD-L1 Inhibitors” (J Med Chem, 2023).
